Data as given in ChEMBL document CHEMBL4765285, “Discovery of orally active indirubin-3'-oxime derivatives as potent type 1 FLT3 inhibitors for acute myeloid leukemia” (Eur J Med Chem, 2020).
Calls of active or inactive are those of the source. No cut-off for these calls is given here.

Assays:
[1] = Oral bioavailability in ICR mouse at 10 mg/kg measured up to 1440 mins by LC-MS/MS analysis; type: ADME, organism-based; conditions: in vivo
[2] = AUClast in ICR mouse at 10 mg/kg, iv or po measured up to 1440 mins by LC-MS/MS analysis; type: ADME, organism-based; design: dose 10 mg/kg, time <=1440; conditions: in vivo
[3] = molecular target: Receptor-type tyrosine-protein kinase FLT3 (Homo sapiens) (UniProt P36888); assay: Inhibition of human FLT3 at 100 nM in presence of ATP relative to control
[4] = tested on: Receptor-type tyrosine-protein kinase FLT3 (Homo sapiens), P36888 [D835Y]; assay: Inhibition of human FLT3 D835Y mutant at 100 nM in presence of ATP relative to control
[5] = molecular target: Vascular endothelial growth factor receptor 3 (Homo sapiens, UniProt P35916); assay: Inhibition of human FLT4 in presence of ATP
Vascular endothelial growth factor receptor 3, sequence (P35916 whole entry): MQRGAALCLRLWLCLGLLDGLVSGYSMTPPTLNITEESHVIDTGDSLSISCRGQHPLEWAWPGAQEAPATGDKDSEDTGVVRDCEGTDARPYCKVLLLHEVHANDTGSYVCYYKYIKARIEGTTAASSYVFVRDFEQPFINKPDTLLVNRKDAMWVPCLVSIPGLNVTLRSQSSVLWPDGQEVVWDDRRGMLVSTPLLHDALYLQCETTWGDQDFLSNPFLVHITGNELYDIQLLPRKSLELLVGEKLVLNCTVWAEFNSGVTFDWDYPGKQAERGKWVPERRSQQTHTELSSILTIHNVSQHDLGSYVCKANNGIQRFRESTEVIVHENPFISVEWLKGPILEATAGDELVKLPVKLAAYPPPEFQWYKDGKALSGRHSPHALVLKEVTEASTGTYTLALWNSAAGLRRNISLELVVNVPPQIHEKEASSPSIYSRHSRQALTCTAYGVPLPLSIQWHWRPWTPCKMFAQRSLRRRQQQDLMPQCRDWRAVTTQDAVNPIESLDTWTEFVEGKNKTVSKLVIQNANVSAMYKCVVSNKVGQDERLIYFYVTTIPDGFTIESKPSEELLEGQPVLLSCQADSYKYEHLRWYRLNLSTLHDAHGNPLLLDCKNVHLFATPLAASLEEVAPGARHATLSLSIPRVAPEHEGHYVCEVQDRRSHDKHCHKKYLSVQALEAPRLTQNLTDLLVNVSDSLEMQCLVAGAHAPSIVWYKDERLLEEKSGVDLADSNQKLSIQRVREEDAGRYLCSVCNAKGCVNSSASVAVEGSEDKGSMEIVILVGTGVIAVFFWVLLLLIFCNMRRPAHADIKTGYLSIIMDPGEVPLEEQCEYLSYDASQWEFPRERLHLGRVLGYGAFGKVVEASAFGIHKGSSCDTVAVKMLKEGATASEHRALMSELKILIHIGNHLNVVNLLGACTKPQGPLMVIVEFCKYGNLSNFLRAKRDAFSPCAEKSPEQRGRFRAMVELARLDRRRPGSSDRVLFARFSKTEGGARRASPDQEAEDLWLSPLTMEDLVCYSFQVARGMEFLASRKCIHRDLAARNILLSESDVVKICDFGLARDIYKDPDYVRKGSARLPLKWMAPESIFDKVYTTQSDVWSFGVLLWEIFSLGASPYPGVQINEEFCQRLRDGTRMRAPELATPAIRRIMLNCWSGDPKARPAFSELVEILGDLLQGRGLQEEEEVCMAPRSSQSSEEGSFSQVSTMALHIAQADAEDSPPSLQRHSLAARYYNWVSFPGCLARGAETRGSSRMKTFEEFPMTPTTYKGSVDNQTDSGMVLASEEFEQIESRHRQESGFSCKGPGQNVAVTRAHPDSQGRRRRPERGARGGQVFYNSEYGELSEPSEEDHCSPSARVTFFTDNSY

[6] = molecular target: Proto-oncogene tyrosine-protein kinase Src (Homo sapiens, UniProt P12931); assay: Inhibition of human c-SRC at 100 nM in presence of ATP relative to control
Proto-oncogene tyrosine-protein kinase Src, sequence (P12931 2-536 limits assumed): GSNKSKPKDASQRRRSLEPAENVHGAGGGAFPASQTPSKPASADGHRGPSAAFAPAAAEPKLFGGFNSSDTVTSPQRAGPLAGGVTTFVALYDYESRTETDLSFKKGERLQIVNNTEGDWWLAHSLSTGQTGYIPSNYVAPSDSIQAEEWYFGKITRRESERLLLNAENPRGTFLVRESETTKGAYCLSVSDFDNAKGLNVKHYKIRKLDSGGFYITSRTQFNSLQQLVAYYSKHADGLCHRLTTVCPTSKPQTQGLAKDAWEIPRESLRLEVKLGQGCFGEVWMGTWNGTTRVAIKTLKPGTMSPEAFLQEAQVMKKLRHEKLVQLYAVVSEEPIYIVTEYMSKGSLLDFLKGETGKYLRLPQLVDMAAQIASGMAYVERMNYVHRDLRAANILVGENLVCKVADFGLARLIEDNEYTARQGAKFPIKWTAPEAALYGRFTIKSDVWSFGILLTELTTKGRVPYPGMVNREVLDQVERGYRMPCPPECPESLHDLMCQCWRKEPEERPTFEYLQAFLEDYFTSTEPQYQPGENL

[7] = molecular target: T1, Macrophage colony-stimulating factor 1 receptor (Homo sapiens, UniProt P07333); assay: Inhibition of human FMS at 100 nM in presence of ATP relative to control
T1 sequence (P07333 whole entry): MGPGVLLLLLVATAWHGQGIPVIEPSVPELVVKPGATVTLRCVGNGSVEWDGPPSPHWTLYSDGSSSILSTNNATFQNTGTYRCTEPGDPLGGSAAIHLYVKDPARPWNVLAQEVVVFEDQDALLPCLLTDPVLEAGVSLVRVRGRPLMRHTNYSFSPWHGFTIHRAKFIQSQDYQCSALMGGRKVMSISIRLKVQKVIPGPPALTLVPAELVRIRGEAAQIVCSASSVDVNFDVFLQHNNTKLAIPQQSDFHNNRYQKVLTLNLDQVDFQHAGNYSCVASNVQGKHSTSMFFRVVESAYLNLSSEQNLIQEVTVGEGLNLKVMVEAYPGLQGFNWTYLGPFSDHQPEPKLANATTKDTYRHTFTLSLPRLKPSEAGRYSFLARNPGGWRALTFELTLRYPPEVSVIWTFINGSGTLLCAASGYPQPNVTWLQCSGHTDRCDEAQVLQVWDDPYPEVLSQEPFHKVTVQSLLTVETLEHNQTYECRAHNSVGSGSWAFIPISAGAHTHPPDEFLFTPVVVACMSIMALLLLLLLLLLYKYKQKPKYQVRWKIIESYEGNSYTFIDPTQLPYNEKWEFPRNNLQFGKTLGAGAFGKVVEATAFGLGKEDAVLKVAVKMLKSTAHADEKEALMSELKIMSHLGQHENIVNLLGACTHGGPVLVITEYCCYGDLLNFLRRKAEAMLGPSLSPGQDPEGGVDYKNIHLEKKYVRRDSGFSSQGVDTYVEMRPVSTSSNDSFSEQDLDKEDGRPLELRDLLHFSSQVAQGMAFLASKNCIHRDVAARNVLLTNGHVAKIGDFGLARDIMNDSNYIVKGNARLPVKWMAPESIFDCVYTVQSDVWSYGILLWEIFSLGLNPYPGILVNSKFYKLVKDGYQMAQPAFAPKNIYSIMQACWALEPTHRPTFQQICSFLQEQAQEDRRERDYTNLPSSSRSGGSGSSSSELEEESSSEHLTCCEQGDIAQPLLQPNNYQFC

[8] = molecular target: T1, Macrophage colony-stimulating factor 1 receptor; assay: Inhibition of human FMS in presence of ATP
[9] = molecular target: Tyrosine-protein kinase Mer (Homo sapiens, UniProt Q12866); assay: Inhibition of human MER in presence of ATP
Tyrosine-protein kinase Mer, sequence (Q12866 whole entry): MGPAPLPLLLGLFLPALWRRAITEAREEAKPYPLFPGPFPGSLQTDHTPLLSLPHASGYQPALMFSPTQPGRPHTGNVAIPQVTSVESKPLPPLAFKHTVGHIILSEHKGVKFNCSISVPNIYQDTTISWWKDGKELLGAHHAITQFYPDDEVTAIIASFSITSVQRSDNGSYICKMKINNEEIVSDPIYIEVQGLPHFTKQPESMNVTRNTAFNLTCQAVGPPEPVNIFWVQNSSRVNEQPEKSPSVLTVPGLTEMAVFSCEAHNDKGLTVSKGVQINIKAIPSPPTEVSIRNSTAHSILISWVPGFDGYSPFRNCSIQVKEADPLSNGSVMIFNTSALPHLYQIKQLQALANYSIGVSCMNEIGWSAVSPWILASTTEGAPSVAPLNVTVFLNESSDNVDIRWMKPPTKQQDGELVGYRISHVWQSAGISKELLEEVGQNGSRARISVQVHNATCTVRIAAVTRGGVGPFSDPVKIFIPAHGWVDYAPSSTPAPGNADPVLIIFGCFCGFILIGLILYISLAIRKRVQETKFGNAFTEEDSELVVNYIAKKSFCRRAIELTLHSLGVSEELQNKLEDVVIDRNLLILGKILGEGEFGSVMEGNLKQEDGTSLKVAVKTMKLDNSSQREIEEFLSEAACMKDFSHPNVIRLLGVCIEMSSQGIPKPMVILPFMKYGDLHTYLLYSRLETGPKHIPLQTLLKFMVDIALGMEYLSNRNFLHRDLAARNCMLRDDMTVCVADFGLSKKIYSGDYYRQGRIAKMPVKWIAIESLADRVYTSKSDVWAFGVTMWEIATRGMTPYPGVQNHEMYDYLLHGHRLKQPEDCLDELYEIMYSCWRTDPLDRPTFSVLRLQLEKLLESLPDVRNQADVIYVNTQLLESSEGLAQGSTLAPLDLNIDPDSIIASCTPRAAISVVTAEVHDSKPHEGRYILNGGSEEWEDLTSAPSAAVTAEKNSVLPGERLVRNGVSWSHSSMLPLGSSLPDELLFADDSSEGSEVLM

[10] = molecular target: Proto-oncogene tyrosine-protein kinase receptor Ret (Homo sapiens, UniProt P07949); assay: Inhibition of human RET at 100 nM in presence of ATP relative to control
[11] = molecular target: T2, High affinity nerve growth factor receptor (Homo sapiens, UniProt P04629); assay: Inhibition of human TrkA at 100 nM in presence of ATP relative to control
[12] = molecular target: T2, High affinity nerve growth factor receptor; assay: Inhibition of human TrkA in presence of ATP
[13] = molecular target: T3, BDNF/NT-3 growth factors receptor (Homo sapiens, UniProt Q16620); assay: Inhibition of human TrkB at 100 nM in presence of ATP relative to control
[14] = molecular target: T3, BDNF/NT-3 growth factors receptor; assay: Inhibition of human TrkB in presence of ATP
[15] = molecular target: Receptor-type tyrosine-protein kinase FLT3 (Homo sapiens, UniProt P36888, ITD); assay: Binding affinity to human FLT3 ITD mutant in presence of ATP by Lanthascreen Eu kinase binding assay
[16] = molecular target: Platelet-derived growth factor receptor alpha (Homo sapiens) (UniProt P16234); assay: Inhibition of human PDGFRa at 100 nM in presence of ATP relative to control
[17] = molecular target: Mast/stem cell growth factor receptor Kit (Homo sapiens) (UniProt P10721); assay: Inhibition of human c-KIT at 100 nM in presence of ATP relative to control
[18] = molecular target: Cyclin-dependent kinase 2 (Homo sapiens) (UniProt P24941); assay: Inhibition of human CDK2 at 100 nM in presence of ATP relative to control
[19] = molecular target: T4, Maternal embryonic leucine zipper kinase (Homo sapiens, UniProt Q14680); assay: Inhibition of human MELK at 100 nM in presence of ATP relative to control
[20] = molecular target: T4, Maternal embryonic leucine zipper kinase; assay: Inhibition of human MELK in presence of ATP
K562 = assay: Antiproliferative activity against human K562 cells assessed as cell growth inhibition by WST assay; type: functional
[21] = Selectivity index, ratio of GI50 for human K562 cells to GI50 for human MV4-11 cells; type: functional
MV4-11 [22] = assay: Antitumor activity against human MV4-11 cells xenografted in BALB/c nu/nu mouse assessed as reduction in tumor volume at 20 mg/kg, po administered once daily for 21 days measured twice daily during compound dosing; type: functional, organism-based; conditions: time 21.0 day
[23] = Toxicity in BALB/c nu/nu mouse xenografted with human MV4-11 cells assessed as body weight loss at 20 mg/kg, po administered for 21 days; type: organism-based; conditions: in vivo, 504 h, time 21 day
hERG (KCNH2) = hERG (KCNH2) (Homo sapiens, UniProt Q12809); assay: Inhibition of human ERG at 10 uM relative to control
hERG (KCNH2), sequence (Q12809 whole entry): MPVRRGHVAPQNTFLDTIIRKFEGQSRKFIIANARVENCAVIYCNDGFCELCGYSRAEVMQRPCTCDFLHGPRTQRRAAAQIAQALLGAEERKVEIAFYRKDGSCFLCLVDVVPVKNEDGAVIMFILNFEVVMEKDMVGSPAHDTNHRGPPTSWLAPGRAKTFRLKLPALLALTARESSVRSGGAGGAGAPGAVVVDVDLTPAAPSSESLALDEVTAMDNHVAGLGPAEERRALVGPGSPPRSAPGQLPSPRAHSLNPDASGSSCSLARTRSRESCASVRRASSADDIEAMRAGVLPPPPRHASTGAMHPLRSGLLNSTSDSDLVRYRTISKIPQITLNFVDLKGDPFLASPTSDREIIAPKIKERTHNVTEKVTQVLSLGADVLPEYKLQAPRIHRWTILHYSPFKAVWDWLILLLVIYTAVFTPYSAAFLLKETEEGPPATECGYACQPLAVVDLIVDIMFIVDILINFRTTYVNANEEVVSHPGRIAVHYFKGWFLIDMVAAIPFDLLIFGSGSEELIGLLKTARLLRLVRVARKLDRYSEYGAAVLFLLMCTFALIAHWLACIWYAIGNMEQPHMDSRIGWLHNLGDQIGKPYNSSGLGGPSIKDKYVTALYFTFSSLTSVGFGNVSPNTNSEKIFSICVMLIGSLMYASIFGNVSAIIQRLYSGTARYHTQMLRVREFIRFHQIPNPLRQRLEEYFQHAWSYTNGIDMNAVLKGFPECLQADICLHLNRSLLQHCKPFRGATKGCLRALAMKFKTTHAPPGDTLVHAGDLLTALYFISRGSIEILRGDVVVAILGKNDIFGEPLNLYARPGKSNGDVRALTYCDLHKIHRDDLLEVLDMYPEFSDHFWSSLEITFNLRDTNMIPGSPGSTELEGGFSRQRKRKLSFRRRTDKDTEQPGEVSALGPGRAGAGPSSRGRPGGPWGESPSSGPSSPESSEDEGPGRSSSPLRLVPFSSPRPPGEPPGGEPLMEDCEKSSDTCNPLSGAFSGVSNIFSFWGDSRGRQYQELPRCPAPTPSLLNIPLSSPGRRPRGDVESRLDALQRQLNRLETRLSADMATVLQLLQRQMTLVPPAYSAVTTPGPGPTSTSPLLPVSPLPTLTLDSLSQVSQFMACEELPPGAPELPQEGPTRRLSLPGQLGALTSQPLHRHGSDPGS

[24] = Acute toxicity in ICR male mouse assessed as approximate lethal dose; conditions: in vivo, read-out: ALD50
[25] = Acute toxicity in ICR mouse assessed as median lethal dose; conditions: in vivo
[26] = Acute toxicity in ICR female mouse assessed as approximate lethal dose; conditions: in vivo
[27] = molecular target: T5, Receptor-type tyrosine-protein kinase FLT3 (Homo sapiens, UniProt P36888)
T5 sequence (P36888 whole entry): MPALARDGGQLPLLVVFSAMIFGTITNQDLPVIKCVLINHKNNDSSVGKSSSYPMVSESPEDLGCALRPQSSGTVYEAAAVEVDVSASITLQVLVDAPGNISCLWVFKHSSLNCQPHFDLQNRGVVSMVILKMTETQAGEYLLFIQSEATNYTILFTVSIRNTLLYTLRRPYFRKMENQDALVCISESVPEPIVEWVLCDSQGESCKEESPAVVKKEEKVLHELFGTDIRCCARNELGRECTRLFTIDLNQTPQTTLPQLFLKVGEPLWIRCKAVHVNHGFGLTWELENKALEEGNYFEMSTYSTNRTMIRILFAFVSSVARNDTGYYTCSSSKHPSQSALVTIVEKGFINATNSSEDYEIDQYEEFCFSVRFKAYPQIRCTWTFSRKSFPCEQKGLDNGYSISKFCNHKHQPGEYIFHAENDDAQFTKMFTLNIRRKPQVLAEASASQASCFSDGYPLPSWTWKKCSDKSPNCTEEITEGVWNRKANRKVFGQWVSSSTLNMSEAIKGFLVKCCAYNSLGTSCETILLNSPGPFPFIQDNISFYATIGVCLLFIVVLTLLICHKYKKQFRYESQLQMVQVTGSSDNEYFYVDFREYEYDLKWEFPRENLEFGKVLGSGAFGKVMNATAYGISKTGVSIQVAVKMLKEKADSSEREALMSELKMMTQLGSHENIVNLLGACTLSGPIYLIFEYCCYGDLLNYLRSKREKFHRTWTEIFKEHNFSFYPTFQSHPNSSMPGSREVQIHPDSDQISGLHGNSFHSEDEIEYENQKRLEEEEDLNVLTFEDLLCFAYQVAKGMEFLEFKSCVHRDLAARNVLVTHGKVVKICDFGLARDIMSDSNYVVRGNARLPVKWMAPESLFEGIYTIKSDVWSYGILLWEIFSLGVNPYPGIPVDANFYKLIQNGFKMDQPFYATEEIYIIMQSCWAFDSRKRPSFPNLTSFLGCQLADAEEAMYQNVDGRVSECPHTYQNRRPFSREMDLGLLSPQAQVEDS
Description: Inhibition of recombinant His-tagged human FLT3 expressed in baculovirus expression system using peptide substrate incubated for 30 mins in presence of ATP by HTRF assay

MV4-11 [28] = assay: cells; conditions: Homo sapiens, MV4-11, 72 h
Description: Antiproliferative activity against human MV4-11 cells assessed as cell growth inhibition after 72 hrs by WST assay

MOLM-14 [29] = assay: cells; conditions: Homo sapiens
Description: Antiproliferative activity against wild type human MOLM14 cells assessed as cell growth inhibition by MTT assay

MOLM-14 [30] = assay: cells; conditions: Homo sapiens; remark: listed apart in the source
Description: Antiproliferative activity against human MOLM14 cells harboring ITD/D835Y mutant assessed as cell growth inhibition by MTT assay

Work on Cl.O=C1Nc2ccc(F)cc2/C1=C1/Nc2ccccc2/C1=N\OCCN1CCNCC1 yielded a bioavailability [1] of 42.6%, an AUC(0-t) at 24 h [2] of 417 ng·h/mL and an inhibition [3] of 98%. It also gave an inhibition [4] of 99%, an IC50 [5] of 23.8 nM and an inhibition [6] of 87%. The inhibition [7] was 92%, the IC50 [8] was 4.2 nM and the IC50 [9] was 3.01 nM. The inhibition [10] was 98%, the inhibition [11] was 99% and the IC50 [12] was 6.89 nM. The inhibition [13] was 100%, the IC50 [14] was 2.04 nM and the Kd [15] was < 0.25 nM. For the same molecule, the inhibition [16] was 5%, the inhibition [17] was 22% and the inhibition [18] was 43%. For the same molecule, the inhibition [19] was 86%, the IC50 [20] was 5.54 nM and the GI50 (K562) was 437 nM. The RatioGI50 [21] was 430, the Activity (MV4-11 [22]) was “Active” and the Activity [23] was “Non-Toxic”. It also gave an inhibition at 10 µM (hERG (KCNH2)) of 21.4%, an LD50 [24] of 2000 mg/kg and an LD50 [25] of 4950 mg/kg. The ALD50 [26] was 2000 mg/kg, the IC50 [27] was 0.87 nM and the GI50 (MV4-11 [28]) was 1 nM. For the same molecule, the GI50 (MOLM-14 [29]) was 4.88 nM and the GI50 (MOLM-14 [30]) was 1.87 nM.
